The record followed here is patent US20160256480A1, “THERAPEUTIC COMPOSITION FOR WOUND HEALING” (priority 2015, published 2016).

A short description of data set [1]: Dissolution of beta-glucan in MilliQ Ultrapure water. The class given is physicochemical. On the procedure:
(§1) J774A.1 cells are mouse monocyte/macrophage cells. These cells are adherent and upon death will detach from the surface fo the culture flasks or coverslips. Cells were grown to approximately 80% confluence in 24-well plates on 12 mm coverslips overnight. Cells were grown in a minimum essential medium with insulin (IMEMZO, Irvine Scientific, Santa Ana, Calif.) with 5% fetal bovine serum (FBS, Atlanta Biologicals, Norcross, Ga.). Beta-glucan was dissolved with MilliQ Ultrapure water. […] Beta-glucan was diluted with IMEMZO media and added to the cells for the duration of the incubation. Cells were examined daily and phase-contrast images taken at specific intervals to capture the health of the cells. All images were captured at 200× magnification.

The test system of another data set is J774A.1 cells. The data set is described as follows: Incubation of J774A.1 mouse macrophages with beta-glucan, phase-contrast examination of cell health. The class given is cell-based. How it is done: as §1
The beta-glucan was purchased from Sigma-Aldrich (CAS Number 9051-97-2; MDL number MFCD00466918). Beta-glucan source was Euglena gracilis.

Regarding “beta-1,3-Glucan from Euglena gracilis [beta-glucan]”, in data set [1], the solubility in water result is listed as “only partially dissolved”. Moreover, the “effect on cell growth and proliferation” value in the data set with J774A.1 cells (1 mg/ml beta-glucan over 48 hours) was “no adverse affect on the cell growth and proliferation”. Further, the “increase in cell numbers” value in the data set on J774A.1 cells (3 mg/ml beta-glucan, base media IMEMZO, 48 hours) is recorded as “increased in numbers at a rate that is typical in the base media”. Further, in the data set with J774A.1 cells (3 mg/ml beta-glucan, mouse macrophages, 48 hour culture period), the “visible pathological effects on cellular growth or survival” value is “did not pose any visible pathological effects on cellular growth or survival”. The “cell size and adherence” value in the data set on J774A.1 cells (3 mg/ml beta-glucan, over the 48 hour culture period) is “did not decrease in size and remained adherent”.
